Results reported in BigSolDB 2.1.

[1] = in gamma-valerolactone, 283.15 K
[2] = in gamma-valerolactone, 293.15 K
[3] = in gamma-valerolactone, 303.15 K
[4] = in gamma-valerolactone, 313.15 K
[5] = in gamma-valerolactone, 323.15 K
[6] = in gamma-valerolactone, 333.15 K

For `C[C@H](CCC(=O)O)[C@H]1CC[C@H]2[C@@H]3CC[C@@H]4C[C@H](O)CC[C@]4(C)[C@H]3C[C@H](O)[C@]12C`, the solubility (mole fraction) (in 2-pentanone, 283.15 K) was 0.000911, the solubility (mole fraction) (in 2-pentanone, 293.15 K) was 0.00145 and the solubility (mole fraction) (in 2-pentanone, 303.15 K) was 0.00198. It also gave a solubility (mole fraction) (in 2-pentanone, 313.15 K) of 0.00286, a solubility (mole fraction) (in 2-pentanone, 323.15 K) of 0.00378 and a solubility (mole fraction) (in 2-pentanone, 333.15 K) of 0.0049. For the same molecule, the solubility (mole fraction) (in cyclohexanone, 283.15 K) was 0.00147, the solubility (mole fraction) (in cyclohexanone, 293.15 K) was 0.00214 and the solubility (mole fraction) (in cyclohexanone, 303.15 K) was 0.00302. For the same molecule, the solubility (mole fraction) (in cyclohexanone, 313.15 K) was 0.00416, the solubility (mole fraction) (in cyclohexanone, 323.15 K) was 0.00567 and the solubility (mole fraction) (in cyclohexanone, 333.15 K) was 0.00744. It also gave a solubility (mole fraction) (in ethyl acetate, 283.15 K) of 0.000187, a solubility (mole fraction) (in ethyl acetate, 293.15 K) of 0.000304 and a solubility (mole fraction) (in ethyl acetate, 303.15 K) of 0.000448. It also gave a solubility (mole fraction) (in ethyl acetate, 313.15 K) of 0.000771, a solubility (mole fraction) (in ethyl acetate, 323.15 K) of 0.0011 and a solubility (mole fraction) (in ethyl acetate, 333.15 K) of 0.00147. For the same molecule, the solubility (mole fraction) (in furfural, 283.15 K) was 0.000227, the solubility (mole fraction) (in furfural, 293.15 K) was 0.000293 and the solubility (mole fraction) (in furfural, 303.15 K) was 0.000478. It also gave a solubility (mole fraction) (in furfural, 313.15 K) of 0.000599, a solubility (mole fraction) (in furfural, 323.15 K) of 0.000913 and a solubility (mole fraction) (in furfural, 333.15 K) of 0.0014. For the same molecule, the solubility (mole fraction) [1] was 0.000904, the solubility (mole fraction) [2] was 0.00147 and the solubility (mole fraction) [3] was 0.00217. For the same molecule, the solubility (mole fraction) [4] was 0.00304, the solubility (mole fraction) [5] was 0.00509 and the solubility (mole fraction) [6] was 0.00757. The solubility (mole fraction) (in methyl acetate, 283.15 K) was 0.000224, the solubility (mole fraction) (in methyl acetate, 293.15 K) was 0.000382 and the solubility (mole fraction) (in methyl acetate, 303.15 K) was 0.00071. It also gave a solubility (mole fraction) (in methyl acetate, 313.15 K) of 0.00107, a solubility (mole fraction) (in methyl acetate, 323.15 K) of 0.0016 and a solubility (mole fraction) (in n-butanol, 283.15 K) of 0.00134. It also gave a solubility (mole fraction) (in n-butanol, 293.15 K) of 0.00159, a solubility (mole fraction) (in n-butanol, 303.15 K) of 0.00189 and a solubility (mole fraction) (in n-butanol, 313.15 K) of 0.00246. It also gave a solubility (mole fraction) (in n-butanol, 323.15 K) of 0.00275, a solubility (mole fraction) (in n-butanol, 333.15 K) of 0.00315 and a solubility (mole fraction) (in n-butyl acetate, 283.15 K) of 0.000222. For the same molecule, the solubility (mole fraction) (in n-butyl acetate, 293.15 K) was 0.000275, the solubility (mole fraction) (in n-butyl acetate, 303.15 K) was 0.000415 and the solubility (mole fraction) (in n-butyl acetate, 313.15 K) was 0.000609. The solubility (mole fraction) (in n-butyl acetate, 323.15 K) was 0.000875, the solubility (mole fraction) (in n-butyl acetate, 333.15 K) was 0.00127 and the solubility (mole fraction) (in n-hexanol, 283.15 K) was 0.00773. For the same molecule, the solubility (mole fraction) (in n-hexanol, 293.15 K) was 0.00902, the solubility (mole fraction) (in n-hexanol, 303.15 K) was 0.0102 and the solubility (mole fraction) (in n-hexanol, 313.15 K) was 0.0125. For the same molecule, the solubility (mole fraction) (in n-hexanol, 323.15 K) was 0.0153, the solubility (mole fraction) (in n-hexanol, 333.15 K) was 0.0174 and the solubility (mole fraction) (in n-octanol, 283.15 K) was 0.00898. It also gave a solubility (mole fraction) (in n-octanol, 293.15 K) of 0.0116, a solubility (mole fraction) (in n-octanol, 303.15 K) of 0.0135 and a solubility (mole fraction) (in n-octanol, 313.15 K) of 0.016. It also gave a solubility (mole fraction) (in n-octanol, 323.15 K) of 0.0192 and a solubility (mole fraction) (in n-octanol, 333.15 K) of 0.0232.

In the case of `C[C@H](CCC(=O)O)[C@H]1CC[C@H]2[C@@H]3[C@H](O)C[C@@H]4C[C@H](O)CC[C@]4(C)[C@H]3C[C@H](O)[C@]12C`, the solubility (mole fraction) (in 2-pentanone, 283.15 K) is reported as 0.00141, the solubility (mole fraction) (in 2-pentanone, 293.15 K) is reported as 0.00164 and the solubility (mole fraction) (in 2-pentanone, 303.15 K) is reported as 0.00206. For the same molecule, the solubility (mole fraction) (in 2-pentanone, 313.15 K) was 0.00247, the solubility (mole fraction) (in 2-pentanone, 323.15 K) was 0.00299 and the solubility (mole fraction) (in 2-pentanone, 333.15 K) was 0.00345. The solubility (mole fraction) (in cyclohexanone, 283.15 K) was 0.00753, the solubility (mole fraction) (in cyclohexanone, 293.15 K) was 0.00842 and the solubility (mole fraction) (in cyclohexanone, 303.15 K) was 0.00952. It also gave a solubility (mole fraction) (in cyclohexanone, 313.15 K) of 0.0106, a solubility (mole fraction) (in cyclohexanone, 323.15 K) of 0.012 and a solubility (mole fraction) (in cyclohexanone, 333.15 K) of 0.0137. The solubility (mole fraction) (in ethyl acetate, 283.15 K) was 0.000154, the solubility (mole fraction) (in ethyl acetate, 293.15 K) was 0.000242 and the solubility (mole fraction) (in ethyl acetate, 303.15 K) was 0.000392. It also gave a solubility (mole fraction) (in ethyl acetate, 313.15 K) of 0.000536, a solubility (mole fraction) (in ethyl acetate, 323.15 K) of 0.000713 and a solubility (mole fraction) (in ethyl acetate, 333.15 K) of 0.000942. The solubility (mole fraction) (in furfural, 283.15 K) was 3.55e-05, the solubility (mole fraction) (in furfural, 293.15 K) was 7.5e-05 and the solubility (mole fraction) (in furfural, 303.15 K) was 0.000127. The solubility (mole fraction) (in furfural, 313.15 K) was 0.000197, the solubility (mole fraction) (in furfural, 323.15 K) was 0.000349 and the solubility (mole fraction) (in furfural, 333.15 K) was 0.000563. For the same molecule, the solubility (mole fraction) [1] was 0.000822, the solubility (mole fraction) [2] was 0.00154 and the solubility (mole fraction) [3] was 0.00258. For the same molecule, the solubility (mole fraction) [4] was 0.00412, the solubility (mole fraction) [5] was 0.00604 and the solubility (mole fraction) [6] was 0.00978. The solubility (mole fraction) (in methyl acetate, 283.15 K) was 7.59e-05, the solubility (mole fraction) (in methyl acetate, 293.15 K) was 0.000128 and the solubility (mole fraction) (in methyl acetate, 303.15 K) was 0.000232. The solubility (mole fraction) (in methyl acetate, 313.15 K) was 0.000489, the solubility (mole fraction) (in methyl acetate, 323.15 K) was 0.000811 and the solubility (mole fraction) (in n-butanol, 283.15 K) was 0.00219. For the same molecule, the solubility (mole fraction) (in n-butanol, 293.15 K) was 0.00245, the solubility (mole fraction) (in n-butanol, 303.15 K) was 0.0027 and the solubility (mole fraction) (in n-butanol, 313.15 K) was 0.00296. The solubility (mole fraction) (in n-butanol, 323.15 K) was 0.00337, the solubility (mole fraction) (in n-butanol, 333.15 K) was 0.00389 and the solubility (mole fraction) (in n-butyl acetate, 283.15 K) was 0.000224. For the same molecule, the solubility (mole fraction) (in n-butyl acetate, 293.15 K) was 0.000284, the solubility (mole fraction) (in n-butyl acetate, 303.15 K) was 0.000378 and the solubility (mole fraction) (in n-butyl acetate, 313.15 K) was 0.000492. It also gave a solubility (mole fraction) (in n-butyl acetate, 323.15 K) of 0.000613, a solubility (mole fraction) (in n-butyl acetate, 333.15 K) of 0.000765 and a solubility (mole fraction) (in n-hexanol, 283.15 K) of 0.0156. It also gave a solubility (mole fraction) (in n-hexanol, 293.15 K) of 0.0166, a solubility (mole fraction) (in n-hexanol, 303.15 K) of 0.0182 and a solubility (mole fraction) (in n-hexanol, 313.15 K) of 0.0202. It also gave a solubility (mole fraction) (in n-hexanol, 323.15 K) of 0.0223, a solubility (mole fraction) (in n-hexanol, 333.15 K) of 0.0236 and a solubility (mole fraction) (in n-octanol, 283.15 K) of 0.0154. The solubility (mole fraction) (in n-octanol, 293.15 K) was 0.0171, the solubility (mole fraction) (in n-octanol, 303.15 K) was 0.0183 and the solubility (mole fraction) (in n-octanol, 313.15 K) was 0.0201. For the same molecule, the solubility (mole fraction) (in n-octanol, 323.15 K) was 0.0222 and the solubility (mole fraction) (in n-octanol, 333.15 K) was 0.0242.
